From PubChem BioAssay (NCI)
Where “and” joins values, the source holds several entries; their conditions need not be identical. Identical values can stand only once.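 Five compound concentrations were applied to cells in 96-well plates for 48 hours; endpoints were derived by simple linear interpolation of the resulting dose-response curve. GI50 is the concentration that inhibits growth by half. Definition used: TGI = concentration required for complete inhibition of growth.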

Experiments:
Assay in all cases: NCI anticancer screen, dose series, 48 h
U251 CNS = tested on: U251 CNS
TK-10 renal = tested on: TK-10 renal
NCI-H460 lung = tested on: NCI-H460 lung
UACC-257 melanoma = tested on: UACC-257 melanoma
OVCAR-8 ovarian = tested on: OVCAR-8 ovarian
NCI-H23 lung = tested on: NCI-H23 lung
CAKI-1 renal = tested on: CAKI-1 renal
SK-OV-3 ovarian = tested on: SK-OV-3 ovarian
HCT-116 colon = tested on: HCT-116 colon
OVCAR-5 ovarian = tested on: OVCAR-5 ovarian

SMILES	GI50 (U251 CNS)	TGI (U251 CNS)	GI50 (TK-10 renal)	TGI (TK-10 renal)	GI50 (NCI-H460 lung)	TGI (NCI-H460 lung)	GI50 (UACC-257 melanoma)	TGI (UACC-257 melanoma)	GI50 (OVCAR-8 ovarian)	TGI (OVCAR-8 ovarian)	GI50 (NCI-H23 lung)	TGI (NCI-H23 lung)	GI50 (CAKI-1 renal)	TGI (CAKI-1 renal)	GI50 (SK-OV-3 ovarian)	TGI (SK-OV-3 ovarian)	GI50 (HCT-116 colon)	TGI (HCT-116 colon)	GI50 (OVCAR-5 ovarian)	TGI (OVCAR-5 ovarian)
CC1=C2C[C@H]3[C@@H](CC[C@@H]4CC(NS(C)(=O)=O)CC[C@@]43C)[C@@H]2CC[C@@]2(C1)O[C@@H]1C[C@H](C)CN[C@H]1[C@H]2C (stereo not given in full)	6.92 µM	20.8 µM	11.3 µM	24.4 µM	4.81 µM	16 µM	6.28 µM	18.9 µM	12 µM	25.7 µM	16.3 µM	33.2 µM	7.63 µM	22 µM	8.49 µM	21.2 µM	4.77 µM	18.4 µM	13.7 µM	27.5 µM
CC1(c2cccc3ccccc23)OC(=O)c2ccccc21 (stereo not given)	–	45.7 µM	–	> 100 µM	–	52.8 µM	–	54.5 µM	–	> 100 µM	–	38.1 µM	–	51 µM	–	75.8 µM	–	34.6 µM	–	> 100 µM
O=C(CC1(O)C(=O)Nc2c(Cl)ccc(Cl)c21)c1ccc2ccccc2c1 (stereo not given)	–	61.3 µM	–	44.4 µM	–	25.5 µM	–	25.3 µM	–	38.3 µM	–	27 µM	–	16.5 µM	–	33.5 µM	–	28.3 µM	–	39.5 µM
COc1ncc(-c2ccc3nccc(-c4ccnnc4)c3c2)cc1NS(=O)(=O)c1ccc(F)cc1F	0.0194 µM and < 0.0147 µM	> 3.43 µM and 0.923 µM	0.00325 µM and < 0.01 µM	0.0831 µM and 0.0719 µM	0.00406 µM and < 0.01 µM	> 10 µM and 15.3 µM	0.00627 µM and < 0.01 µM	0.378 µM and 0.0615 µM	0.0191 µM and 0.0173 µM	> 5.42 µM and 3.25 µM	0.029 µM and 0.0174 µM	> 8.67 µM and 6.46 µM	0.00521 µM and < 0.01 µM	0.746 µM and 1.7 µM	0.00188 µM and < 0.01 µM	0.0204 µM and 0.0377 µM	0.0155 µM	2.31 µM and 1.55 µM	0.00728 µM and < 0.01 µM	> 10 µM and 2.76 µM
COc1cc2cc(Oc3ccc(NC(=O)Nc4cccc(C(F)(F)F)c4)cc3)c(C)nc2cc1OC	1.56 µM	5.61 µM	2.26 µM	9.93 µM	1.6 µM	6.02 µM	1.09 µM	3.66 µM	1.71 µM	6.28 µM	1.7 µM	7.41 µM	1.32 µM	4.29 µM	2.06 µM	10.6 µM	1.46 µM	5.84 µM	3.02 µM	13 µM
N[C@@H]1CCCC[C@H]1N.O=C([O-])C(=O)[O-].[Pt+4]	1.83 µM	27.1 µM	21.2 µM	74 µM	0.435 µM	38.3 µM	10.7 µM	> 81.1 µM	6 µM	> 100 µM	1.76 µM	15.2 µM	0.765 µM	39.3 µM	> 66.2 µM	> 100 µM	0.378 µM	> 100 µM	0.671 µM	21.2 µM
N#CC(C(=O)/C(=N/N)C(C#N)c1ccccc1)c1ccccc1 (stereo not given)	–	> 100 µM	–	> 100 µM	–	> 100 µM	–	> 100 µM	–	> 100 µM	–	> 100 µM	–	> 100 µM	–	> 100 µM	–	> 100 µM	–	> 100 µM
O=C(c1ccco1)c1nc2cc(Cl)ccc2[n+]([O-])c1C(F)(F)F	70.9 µM	> 100 µM	44.1 µM	> 100 µM	57 µM	> 100 µM	4.07 µM	32.9 µM	57.1 µM	> 100 µM	42 µM	> 100 µM	28.3 µM	73.9 µM	> 100 µM	> 100 µM	40.6 µM	> 100 µM	> 100 µM	> 100 µM
CC(=O)OC[C@]1(O)CC[C@@]23CC1C[C@@H]2CCC1C(C)(C)CCC[C@@]13C (stereo not given in full)	–	27.1 µM	–	26.2 µM	–	30.2 µM	–	29.4 µM	–	32 µM	–	26.4 µM	–	32.4 µM	–	28.9 µM	–	24.2 µM	–	23.5 µM
O=c1ccn(C2OC(CO/N=C/c3ccc(O)c(O)c3O)C(O)C2O)c(=O)[nH]1 (stereo not given)	16.8 µM	30.4 µM	> 100 µM	> 100 µM	> 100 µM	> 100 µM	33.5 µM	> 100 µM	22.3 µM	56 µM	22.6 µM	49.6 µM	49.7 µM	> 100 µM	27.2 µM	89 µM	20.6 µM	58.7 µM	> 100 µM	> 100 µM
O=C1c2cc3c(cc2-c2c1c1ccc(Cl)cc1c(=O)n2CCCNCCO)OCO3	0.0403 µM	1.4 µM	1.5 µM	2.94 µM	0.0342 µM	1.34 µM	0.666 µM	2.43 µM	0.476 µM	2.59 µM	0.0553 µM	1.43 µM	0.0684 µM	2.29 µM	0.212 µM	1.74 µM	0.104 µM	0.588 µM	1.71 µM	3.71 µM
